The values below come from patent US8128963B2, “Methods for treating ischemic disorders using carbon monoxide” (The Trustees of Columbia University in the City Of New York, priority 1999, dated 2012).

In series [1] the test system is murine model of focal cerebral ischemia. Nature of the series: Murine focal cerebral ischemia, carbon monoxide inhalation and heme oxygenase blockade. The class given is in vivo, mouse. Particulars: for infarct volume / mortality: vs controls. The method, then: FIGS. 23A and 23B. FIG. 23A. The effect of carbon monoxide inhalation on cerebral infarct volumes. Mice were placed in bell jars, in which they were exposed to 0.1% CO for 12 hours. After this treatment, they were removed from the bell jars and subjected to intraluminal occlusion of the middle cerebral artery. At 24 hours, animals were sacrificed and infarct volumes measured by triphenyltetrazolium chloride (TTC) staining as shown in FIG. 25. Quantification of infarction volumes (mean±SEM) is expressed as the percent of infarction of the ipsilateral hemisphere.
Protoporphyrin preparation and administration. Tin protoporphyrin IX dichloride (20 mg, Porphyrin Products, Logan, Utah), zinc protoporphyrin IX (17 mg, Porphyrin Products, Logan, Utah), or biliverdin (18 mg, Porphyrin Products, Logan, Utah) was initially dissolved in dimethyl sulfoxide (2 mL). An aliquot of this solution (200 μL) was added to normal saline (9.8 mL) and this mixture was vortexed vigorously to yield a 2.7×10^−4 M solution of the protoporphyrin. The solution container was wrapped in aluminum foil to prevent photolysis of the protoporphyrin and stored at 4° C. until used.
Micro-osmotic pumps (#1003D, Alza Corp., Palo Alto, Calif.) were loaded with this protoporphyrin solution (91 μL/pump) and implanted subcutaneously in the anesthetized mouse via a 1 cm dorsal midline incision 24 h prior to the start of surgery. These pumps administer drug solution at a rate of 0.95±0.02. μL/h. At the time of surgery an additional dose of the protoporphyrin solution was administered (0.3 mL, i.v.) prior to insertion of the intralumenal occluding catheter. Each animal received the following total (injection+pump) drug amounts over the course of the study tin protoporphyrin (0.070 mg), zinc protoporphyrin (0.059 mg), or biliverdin (0.061 mg).

Series [2] deals with lung ischemia (lung preservation for transplantation). The series can be described thus: Rat orthotopic left lung transplantation after 6 h preservation, donor CO pretreatment. It counts as in vivo. The method, then:
Inbred male Lewis rats (250-300 gms) were used for all experiments according to a protocol approved by the Institutional Animal Care and Use Committee at Columbia University, in accordance with guidelines set forth by the American Academy for Accreditation of Laboratory Animal Care (AAALAC). Lung transplant experiments were performed in the following manner. Donor rats were given 500 units of heparin intravenously, and the pulmonary artery (PA) was flushed with a 30 mL volume of 4° C. preservation solution at a constant pressure of 20 mm Hg. When lungs are preserved in this manner, most of the infused flush solution comes out of a left atrial vent created in the lung donor, as well as out of the pulmonary veins following transection.
The left lung was then harvested, a cuff was placed on each vascular stump, a cylinder was inserted into the bronchus, and the lung was submerged for 6 hours in 4° C. preservation solution which was identical to the PA flush solution. Gender/strain/size matched rats were anesthetized, intubated, and ventilated with 100% O2 using a rodent ventilator (Harvard Apparatus, South Natick, Mass.). Orthotopic left lung transplantation was performed through a left thoracotomy using a rapid cuff technique for all anastomoses, with warm ischemic times maintained below 5 minutes. The hilar cross-clamp was released, re-establishing blood flow and ventilation to the transplanted lung. A snare was then passed around the right PA, and Millar catheters (2F; Millar Instruments, Houston, Tex.) were introduced into the main PA and the left atrium (LA). A Doppler flow probe (Transonics, Ithaca, N.Y.) was placed around the main PA.
Online hemodynamic monitoring was accomplished using MacLab and a Macintosh IIci computer. Measured hemodynamic parameters included LA and PA pressures (mm Hg), and PA flow (mL/min). Arterial oxygen tension (pO2, mm Hg) was measured during inspiration of 100% O2 using a model ABL-2 gas analyzer (Radiometer, Copenhagen, Denmark). PVRs were calculated as (mean PA pressure—LA pressure)/mean PA flow and expressed as mm Hg/mL/min. After baseline measurements, the native right PA was ligated and serial measurements taken every five minutes until the time of euthanasia at 30 minutes (or until recipient death).
At the indicated time before surgery (4,8, or 12 hours), rats were placed in a bell jar, and carbon monoxide was administered at various concentrations (0.01%, 0.03%, or 0.1%), with the remainder of the gas mixture consisting of room air. (The gas was passed through a jar of water prior to administration, in order to humidify it for animal comfort). At the indicated times following initiation of exposure, rats were anesthetized and lungs harvested as described above. These donor lungs were used in subsequent lung transplant experiments.

For series [3], the system named is hypoxic human umbillical vein ECs. The series can be described thus: vWF release from hypoxic HUVECs, NO/cGMP pathway. It counts as cell-based. The conditions noted are these: hypoxia pO2<20 Torr 4 hours; SIN-1 0.1 mM, 8-Bromo-cGMP 10 nM. The method, then: (§1) Hypoxia or free radicals induce P-selectin (PS) translocation to the endothelial cell (EC) surface, where it participates in neutrophil (PMN) adhesion during reperfusion. To explore a mechanism whereby nitrovasodilators may attenuate postischemic leukosequestration, we tested whether stimulating the NO/cGMP pathway could attenuate surface PS expression in hypoxic human umbillical vein ECs. […] Under similar conditions, addition of the NO donor 3-morpholino sydnonimine (SIN-1, 0.1 mM) or the cGMP analog 8-Bromo-cGMP (cGMP, 10 nM) caused a reduction in vWF release; Control vWF, 11±0.4 mU/mL; SIN-1, 9.1±0.3 mU/mL; cGMP, 9.7±0.2 mU/mL; p<0.005 for both SIN-1 or cGMP vs Control.

The subject of another series is P-selectin. Nature of the series: Surface P-selectin expression on hypoxic HUVECs (radiolabeled anti-PS antibody binding). It counts as cell-based, human. The method, then: as §1
In the next series the test system is hypoxic HUVECs. The series can be described thus: Immunofluorescent adherence assay, HL60 binding to hypoxic HUVECs. It counts as cell-based, human. The method, then: as §1
The subject of another series is Human umbilical vein ECs. The series can be described thus: vWF release from hypoxic endothelial cells (ELISA). The class given is cell-based. The method, then:
Endothelial cell culture and exposure of cells to H or H/R. Human umbilical vein ECs were prepared from umbilical cords and grown in culture by the method of Jaffe (16) as modified by Thornton (17). Experiments utilized confluent ECs (passages 1-4) grown in Medium 199 supplemented with fetal bovine serum (15%; Gemini, Calabasas, Calif.), human serum (5%; Gemini), endothelial growth supplement (Sigma, St. Louis, Mo.), heparin (90 μg/ml; Sigma) and antibiotics, as described (17). When ECs achieved confluence, experiments were performed by placing cultures in an environmental chamber (Coy Laboratory Products, Ann Arbor, Mich.) which provided a controlled temperature (37° C.) and atmosphere with the indicated amount of oxygen, carbon dioxide (5%) and the balance made up of nitrogen. Use of this chamber for cell culture experiments has been described previously (15,18). During exposure of ECs to hypoxia (for a maximum of 16 hours), the oxygen tension in the culture medium was 14-18 torr and there was no change in the medium pH. Reoxygenation was performed by placing ECs in an ambient atmosphere containing carbon dioxide (5%) at 37° C.
Measurement of Weibel-Palade body exocytosis: ECs were plated into 24 well plates, rinsed 3 times with Hank's balanced salt solution, and then exposed to hypoxia or to normoxia for the indicated durations. For experiments in which vWF was measured, cells were maintained in serum-free medium. All other EC experiments were performed in the EC growth medium described above. For measurement of vWF, 200 μL aliquots of culture supernatant was removed at the indicated times, and a commercially available ELISA (American Diagnostica, Greenwich, Conn.), based on a polyclonal goat anti-human vWF antibody, was performed on duplicate specimens, with a standard curve generated using purified human vWF antigen supplied by the same vendor. EC P-selectin expression was determined by measuring the specific binding of a murine monoclonal anti-human P-selectin antibody (WAPS 12.2 clone, Endogen, Cambridge, Mass.; this is an IgGl which recognizes a calcium sensitive epitope and blocks P-selectin dependent neutrophil adhesion. Antibody was radiolabelled with ^125I by the lactoperoxidase method (19) using Enzymobeads (Bio-Rad, Hercules, Calif.), stored at 4° C. and used within one week of labelling. Binding assays were performed on HUVECs plated on 96 well plates, in which fresh M199 with 0.1% bovine serum albumin (Sigma, St. Louis, Mo.) was added immediately prior to each experiment. Cells were placed in a humidified environment at 37° C., and exposed to normoxia or H (in the presence or absence of 50 μM probucol, as indicated, Sigma) for the indicated durations. Cell monolayers were fixed for 15 min. with 1% paraformaldehyde^10 (cells exposed to H were fixed while still within the hypoxic environment), visually inspected to ensure that the monolayers remained intact, and washed twice with HBSS containing 0.5% bovine serum albumin (HBSS/A). Monolayers were then exposed to 10^5 cpm of ^125I-labelled anti-P-selectin antibody (WAPS 12.2) in the presence of 200 μg/mL of either unlabelled blocking antibody (WAPS 12.2) or nonblocking anti-P-selectin IgG of the same isotype (anti-GMP-140, AC1.2 clone, Becton-Dickinson, San Jose, Calif.) (20,21). After binding for 1 hour at 37° C., monolayers were washed 4 times with HBSS/A, and bound antibody was eluted with 1% triton X-100 in PBS (200 μL/well) and counted. […]

In the next series the test system is acute ischemic stroke. Particulars: cited from earlier work.
Setting [4] is: CO-pretreated donor lungs vs untreated controls.

Turning to `C=CC1=C(C)/C(=C/C2=NC(=C\c3[nH]c(/C=C4\NC(=O)C(C)=C4C=C)c(C)c3CCC(=O)O)/C(CCC(=O)O)=C2C)NC1=O` [Biliverdin, biliverdin], in series [1] (osmotic pump plus i.v. dose, total 0.061 mg), the “effect on stroke outcome (cerebral protection)” value was “without effect”.

`[C-]#[O+]` [carbon monoxide]: the “mortality at 24 hours” value in series [1] (0.1% CO inhaled for 12 hours before MCA occlusion) was “reduces mortality”. In addition, the cerebral infarct volume entry in series [1] (0.1% CO inhaled for 12 hours before MCA occlusion, 24 hours) is “reduces infarct volumes”. Further, in series [1] (dose-response of inhaled CO), the “inhaled CO dose providing optimal protection (infarct volume)” value is listed as 0.1%. Further, the level of protection entry in series [2] (0.01% dose) was “least protection”; in series [2] (0.03% dose), “intermediate level of protection”; in series [2] (0.1% dose), “best protection”. The survival of recipients result in series [2] (CO-pretreated donor lungs vs controls) is listed as “Improved survival”. Besides, the “arterial oxygenation of recipients” value in series [2] (setting [4]) is “Improved arterial oxygenation”. Also, the “pulmonary arterial blood flow” value in series [2] (setting [4]) is recorded as “Increased pulmonary arterial blood flow”. Also, in series [2] (setting [4]), the pulmonary vascular resistance entry is reported as “reduced pulmonary vascular resistance”. Besides, in series [2] (exposure 4, 8 or 12 hours before surgery), the “time dependence of protection” value was “longer exposures appeared to provide the greatest protection”.

Regarding `C=CC1=C(C)c2cc3[n-]c(cc4[n-]c(cc5nc(cc1n2)C(C)=C5C=C)c(C)c4CCC(=O)O)c(CCC(=O)O)c3C.[Zn+2]` [zinc protoporphyrin IX], in series [1] (heme oxygenase blockade), the infarct volume result is listed as “increase” and the mortality entry was “increase”.

Compound `N=c1c[n+](N2CCOCC2)[n-]o1` [SIN-1, 3-morpholino sydnonimine] displayed a vWF release in series [3] of 9.1±0.3 mU/mL. In the series with P-selectin (ECs in calcium-free medium), the “PS expression in calcium-free medium” value is listed as “Neither SIN-1 nor cGMP could further reduce PS expression”. In the series with P-selectin (hypoxia 4 hours, SIN-1 0.1 mM, 8-Bromo-cGMP 10 nM), the “decrease of surface PS expression vs controls” value is listed as 40%. The “decrease of HL60 binding to hypoxic HUVECs vs controls” value in the series with hypoxic HUVECs stood at 53%.

Take `CC(C)(Sc1cc(C(C)(C)C)c(O)c(C(C)(C)C)c1)Sc1cc(C(C)(C)C)c(O)c(C(C)(C)C)c1` [probucol]: the “vWF levels following reoxygenation of hypoxic ECs” value with Human umbilical vein ECs (probucol 50 μM) is on record as “blunt the further increase in vWF levels”. Besides, in the series with Human umbilical vein ECs (probucol 50 μM added at onset of H), the “effect on H-mediated exocytosis of Weibel-Palade bodies (vWF release)” value is “no effect”. Moreover, in the series with Human umbilical vein ECs (probucol 50 μM added at onset of H, 6 hours of H), the “vWF in culture supernatant” value was 4.7±0.31×10^−3 U/ml.

For streptokinase, the “rate of hemorrhagic transformation” value in the series with acute ischemic stroke (given in the first several (<6) hours following stroke onset) was “up to 67%”. Moreover, in the series with acute ischemic stroke (outside the therapeutic window), the 6 month mortality was 73% and the 10 day mortality was 34.0%.

With `O=C(O)CN(CCOCCOCCN(CC(=O)O)CC(=O)O)CC(=O)O` [EGTA, ethyleneglycol bis (aminoethylether) tetraacetic acid], the “H-induced EC release of vWF” value in the series with Human umbilical vein ECs (0 mM Ca++ with 2 mM EGTA, 8 hrs) is reported as “even more suppressive effect”.

As to `C=CC1=C(C)C2=Cc3c(C=C)c(C)c4[n]3[Sn]([Cl])([Cl])[n]3c(c(C)c(CCC(=O)O)c3=CC3=NC(=C4)C(C)=C3CCC(=O)O)=CC1=N2` [tin protoporphyrin, Tin protoporphyrin IX dichloride], in series [1] (heme oxygenase blockade), the infarct volume result is reported as “significantly larger infarct volumes” and the mortality result is “increased mortality”. The neurological outcome in series [1] (heme oxygenase blockade, vs untreated controls) is listed as “worse neurological outcomes”. Moreover, in series [1] (osmotic pump from 24 h before surgery plus i.v. dose), the “local CO levels by direct measurement” value is “reduced local CO levels”.
